Measurements reported in ChEMBL document CHEMBL5634098, “Hydrophobicity modulation via the substituents at positions 2 and 4 of 1,3,5-triazine to enhance therapeutic ability against Alzheimer's disease for potent serotonin 5-HT6R agents” (Eur J Med Chem, 2023).

Tests used:
Parameters in all cases: species or system Membrane
[1] = target: 5-hydroxytryptamine receptor 6 (Homo sapiens, UniProt P50406); assay: Displacement of [3H]-LSD from human 5-HT6 receptor expressed in HEK293 cell membranes assessed as inhibition constant incubated for 1 hr by Microbeta plate reader based analysis
[2] = target: T1, 5-hydroxytryptamine receptor 1A (Homo sapiens, UniProt P08908); assay: Displacement of [3H]-8-OH-DPAT from human 5-HT1A receptor expressed in HEK293 cell membranes assessed as inhibition constant incubated for 1 hr by Microbeta plate reader based analysis
T1 sequence (P08908 whole entry): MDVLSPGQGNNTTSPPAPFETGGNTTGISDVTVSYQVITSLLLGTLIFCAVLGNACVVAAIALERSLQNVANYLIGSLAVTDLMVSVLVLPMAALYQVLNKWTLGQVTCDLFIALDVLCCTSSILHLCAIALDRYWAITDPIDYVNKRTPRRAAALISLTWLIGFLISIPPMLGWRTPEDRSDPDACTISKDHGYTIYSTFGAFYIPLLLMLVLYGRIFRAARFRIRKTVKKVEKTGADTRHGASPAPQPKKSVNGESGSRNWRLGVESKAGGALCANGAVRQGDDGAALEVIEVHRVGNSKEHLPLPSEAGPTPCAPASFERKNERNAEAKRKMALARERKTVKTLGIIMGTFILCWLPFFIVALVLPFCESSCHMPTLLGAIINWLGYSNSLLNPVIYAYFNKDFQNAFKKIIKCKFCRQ

[3] = target: 5-hydroxytryptamine receptor 2A (Homo sapiens, UniProt P28223); assay: Displacement of [3H]-ketanserin from human 5-HT2A receptor expressed in HEK293 cell membranes assessed as inhibition constant incubated for 1 hr by Microbeta plate reader based analysis
[4] = target: 5-hydroxytryptamine receptor 7 (Homo sapiens, UniProt P34969); assay: Displacement of [3H]-5-CT from human 5-HT7 receptor expressed in HEK293 cell membranes assessed as inhibition constant incubated for 1 hr by Microbeta plate reader based analysis
[5] = target: D(2) dopamine receptor (Homo sapiens, UniProt P14416); assay: Displacement of [3H]-raclopride from human D2 receptor expressed in HEK293 cell membranes assessed as inhibition constant incubated for 1 hr by Microbeta plate reader based analysis
Sequence of D(2) dopamine receptor (P14416 whole entry): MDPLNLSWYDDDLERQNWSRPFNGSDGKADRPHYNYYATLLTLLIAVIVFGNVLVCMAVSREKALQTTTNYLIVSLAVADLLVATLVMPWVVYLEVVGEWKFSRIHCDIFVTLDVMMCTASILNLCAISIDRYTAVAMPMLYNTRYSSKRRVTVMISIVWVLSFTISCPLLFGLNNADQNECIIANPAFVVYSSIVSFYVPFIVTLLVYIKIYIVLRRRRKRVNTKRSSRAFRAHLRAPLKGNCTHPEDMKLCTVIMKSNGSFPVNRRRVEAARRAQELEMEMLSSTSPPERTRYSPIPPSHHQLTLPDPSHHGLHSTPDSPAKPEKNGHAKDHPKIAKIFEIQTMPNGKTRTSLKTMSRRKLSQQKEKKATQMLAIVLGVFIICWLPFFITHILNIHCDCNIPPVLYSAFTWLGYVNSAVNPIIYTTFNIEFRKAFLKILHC

Sequence of 5-hydroxytryptamine receptor 7 (P34969 whole entry): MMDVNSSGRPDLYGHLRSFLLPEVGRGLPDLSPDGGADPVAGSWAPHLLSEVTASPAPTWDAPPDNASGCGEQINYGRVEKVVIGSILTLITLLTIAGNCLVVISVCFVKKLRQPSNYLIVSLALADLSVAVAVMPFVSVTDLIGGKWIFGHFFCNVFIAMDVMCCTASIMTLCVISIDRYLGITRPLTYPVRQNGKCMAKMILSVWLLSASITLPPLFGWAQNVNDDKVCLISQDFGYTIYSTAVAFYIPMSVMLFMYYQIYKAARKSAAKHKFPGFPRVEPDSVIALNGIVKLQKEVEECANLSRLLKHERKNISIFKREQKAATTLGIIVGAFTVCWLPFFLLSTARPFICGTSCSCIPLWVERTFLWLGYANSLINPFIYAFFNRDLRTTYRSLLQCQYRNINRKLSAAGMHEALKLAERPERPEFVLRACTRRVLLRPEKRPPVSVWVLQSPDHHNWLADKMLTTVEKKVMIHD
Sequence of 5-hydroxytryptamine receptor 2A (P28223 whole entry): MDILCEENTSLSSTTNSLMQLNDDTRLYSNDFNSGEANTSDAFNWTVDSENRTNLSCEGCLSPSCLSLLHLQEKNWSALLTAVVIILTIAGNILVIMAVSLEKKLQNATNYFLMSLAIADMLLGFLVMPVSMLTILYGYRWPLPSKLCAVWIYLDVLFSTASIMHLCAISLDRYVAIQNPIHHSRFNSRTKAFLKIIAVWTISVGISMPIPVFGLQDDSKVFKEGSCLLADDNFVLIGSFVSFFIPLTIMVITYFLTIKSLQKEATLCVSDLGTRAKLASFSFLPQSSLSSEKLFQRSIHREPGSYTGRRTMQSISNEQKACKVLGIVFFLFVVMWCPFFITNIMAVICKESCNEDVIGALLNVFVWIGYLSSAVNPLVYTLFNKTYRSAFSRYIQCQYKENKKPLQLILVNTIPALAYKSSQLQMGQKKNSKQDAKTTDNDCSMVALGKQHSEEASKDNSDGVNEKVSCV
Sequence of 5-hydroxytryptamine receptor 6 (P50406 whole entry): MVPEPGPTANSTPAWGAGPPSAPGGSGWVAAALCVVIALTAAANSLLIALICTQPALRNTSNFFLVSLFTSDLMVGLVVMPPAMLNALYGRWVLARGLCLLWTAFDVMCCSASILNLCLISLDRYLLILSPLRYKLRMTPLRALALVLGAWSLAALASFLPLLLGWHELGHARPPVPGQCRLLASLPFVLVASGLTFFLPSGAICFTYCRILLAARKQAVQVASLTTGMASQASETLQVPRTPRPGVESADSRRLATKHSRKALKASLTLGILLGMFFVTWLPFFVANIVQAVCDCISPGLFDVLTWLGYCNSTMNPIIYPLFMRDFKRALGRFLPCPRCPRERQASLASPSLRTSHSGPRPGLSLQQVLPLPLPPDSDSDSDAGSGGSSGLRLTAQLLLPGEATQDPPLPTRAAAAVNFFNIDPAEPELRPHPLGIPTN

## CC(Oc1cccc(F)c1F)c1nc(N)nc(N2CCN(C)CC2)n1 (stereo not given)
[1]
  Ki: 94 nM
[2]
  Ki: 4720 nM
[3]
  Ki: 704 nM
[4]
  Ki: 24000 nM
[5]
  Ki: 1350 nM

## CCC(Oc1cccc(Cl)c1F)c1nc(N)nc(N2CCN(C)CC2)n1 (stereo not given)
[1]
  Ki: 23 nM
[2]
  Ki: 2940 nM
[3]
  Ki: 209 nM
[4]
  Ki: 4340 nM
[5]
  Ki: 595 nM

## CC(Oc1cccc(Cl)c1F)c1nc(N)nc(N2CCN(C)CC2)n1 (stereo not given)
[1]
  Ki: 31 nM
[2]
  Ki: 2130 nM
[3]
  Ki: 113 nM
[4]
  Ki: 9740 nM
[5]
  Ki: 472 nM

## CCC(Oc1cc(F)ccc1OC)c1nc(N)nc(N2CCN(C)CC2)n1 (stereo not given)
[1]
  Ki: 72 nM
[2]
  Ki: 4750 nM
[3]
  Ki: 819 nM
[4]
  Ki: 45000 nM
[5]
  Ki: 1790 nM

## CCC(Oc1cc(Cl)cc(Cl)c1)c1nc(Nc2ccccc2)nc(N2CCN(C)CC2)n1 (stereo not given)
[2]
  Ki: 19200 nM
[3]
  Ki: 1680 nM
[4]
  Ki: 16200 nM
[5]
  Ki: 565 nM

## CC(Oc1cc(C(F)(F)F)ccc1C(F)(F)F)c1nc(N)nc(N2CCN(C)CC2)n1 (stereo not given)
[1]
  Ki: 35 nM
[2]
  Ki: 5760 nM
[3]
  Ki: 797 nM
[4]
  Ki: 20000 nM
[5]
  Ki: 811 nM

## CCC(Oc1cccc(Cl)c1Cl)c1nc(Nc2ccccc2)nc(N2CCN(C)CC2)n1 (stereo not given)
[2]
  Ki: 4580 nM
[3]
  Ki: 117 nM
[4]
  Ki: 2670 nM
[5]
  Ki: 411 nM

## COc1ccc(F)cc1OC(C)c1nc(N)nc(N2CCN(C)CC2)n1 (stereo not given)
[1]
  Ki: 60 nM
[2]
  Ki: 6170 nM
[3]
  Ki: 2400 nM
[4]
  Ki: 108000 nM
[5]
  Ki: 2430 nM

## CC(Oc1cc(F)ccc1F)c1nc(N)nc(N2CCN(C)CC2)n1 (stereo not given)
[1]
  Ki: 56 nM
[2]
  Ki: 3110 nM
[3]
  Ki: 2280 nM
[4]
  Ki: 21700 nM
[5]
  Ki: 1020 nM

## CCC(Oc1cccc(F)c1Cl)c1nc(N)nc(N2CCN(C)CC2)n1 (stereo not given)
[2]
  Ki: 1930 nM
[3]
  Ki: 2240 nM
[4]
  Ki: 8680 nM
[5]
  Ki: 3360 nM

## CC(Oc1cc(C(F)(F)F)ccc1F)c1nc(N)nc(N2CCN(C)CC2)n1 (stereo not given)
[1]
  Ki: 52 nM
[2]
  Ki: 6070 nM
[3]
  Ki: 1460 nM
[4]
  Ki: 17100 nM
[5]
  Ki: 931 nM

## CC(Oc1cc(Cl)ccc1F)c1nc(N)nc(N2CCN(C)CC2)n1 (stereo not given)
[1]
  Ki: 58 nM
[2]
  Ki: 2020 nM
[3]
  Ki: 625 nM
[4]
  Ki: 11900 nM
[5]
  Ki: 416 nM

## CCC(Oc1cc(C(F)(F)F)ccc1C(F)(F)F)c1nc(N)nc(N2CCN(C)CC2)n1 (stereo not given)
[2]
  Ki: 8500 nM
[3]
  Ki: 1540 nM
[4]
  Ki: 18100 nM
[5]
  Ki: 820 nM

## CCC(Oc1cc(Cl)cc(Cl)c1)c1nc(Nc2ccncc2)nc(N2CCN(C)CC2)n1 (stereo not given)
[1]
  Ki: 66 nM
[2]
  Ki: 4920 nM
[3]
  Ki: 437 nM
[4]
  Ki: 12600 nM
[5]
  Ki: 723 nM

## CCCCC(Oc1cc(Cl)cc(Cl)c1)c1nc(Nc2ccccc2)nc(N2CCN(C)CC2)n1 (stereo not given)
[1]
  Ki: 21 nM
[2]
  Ki: 144000 nM
[3]
  Ki: 287 nM
[4]
  Ki: 33600 nM
[5]
  Ki: 2590 nM

## CC(Oc1cc(F)ccc1C(F)(F)F)c1nc(N)nc(N2CCN(C)CC2)n1 (stereo not given)
[1]
  Ki: 30 nM
[2]
  Ki: 6980 nM
[3]
  Ki: 629 nM
[4]
  Ki: 29600 nM
[5]
  Ki: 408 nM

## CCC(Oc1cc(F)ccc1C(F)(F)F)c1nc(N)nc(N2CCN(C)CC2)n1 (stereo not given)
[1]
  Ki: 15 nM
[2]
  Ki: 2910 nM
[3]
  Ki: 281 nM
[4]
  Ki: 7330 nM
[5]
  Ki: 260 nM

## CC(Oc1cc(F)ccc1Cl)c1nc(N)nc(N2CCN(C)CC2)n1 (stereo not given)
[1]
  Ki: 39 nM
[2]
  Ki: 1540 nM
[3]
  Ki: 2670 nM
[4]
  Ki: 7240 nM
[5]
  Ki: 1440 nM

## CCC(Oc1cccc(F)c1F)c1nc(N)nc(N2CCN(C)CC2)n1 (stereo not given)
[1]
  Ki: 55 nM
[2]
  Ki: 2650 nM
[3]
  Ki: 3030 nM
[4]
  Ki: 11500 nM
[5]
  Ki: 1300 nM

## CCC(Oc1cc(F)ccc1Cl)c1nc(N)nc(N2CCN(C)CC2)n1 (stereo not given)
[1]
  Ki: 18 nM
[2]
  Ki: 1750 nM
[3]
  Ki: 311 nM
[5]
  Ki: 602 nM

## CCCCC(Oc1cc(Cl)cc(Cl)c1)c1nc(Nc2ccncc2)nc(N2CCN(C)CC2)n1 (stereo not given)
[1]
  Ki: 94 nM
[2]
  Ki: 5140 nM
[3]
  Ki: 694 nM
[4]
  Ki: 5140 nM
[5]
  Ki: 2080 nM
